d = 2'-deoxy (DNA)
Tests used:
Type in all cases: cell-based, human
RPE cells [1] = test: Flow cytometry (FACS) of nocodazole-induced shift from G1 to G2/M peak after siRNA treatment; details: siRNA 50-70 hours, nocodazole 5 μg/mL 12 hours; FIG. 3A, FIG. 8
Experimental: (§1) For flow cytometry (i.e., fluorescence-activated cell sorter or FACS) experiments, siRNAs were delivered to cells as described above, and were incubated for 50-70 hours. To synchronize cells, nocodazole was added to the cells to a concentration of 5 μg/mL for 12 hours. Cells were stained with propidium iodide and analyzed by flow cytometry (FACSCAN; Becton Dickinson) using FLOJO® software (Tree Star, Inc., Ashland, Oreg.).
In another approach to evaluating the effect requirement for centrosomal gene products, fluorescence assisted cell sorting (flow cytometry or FACS) analysis was performed as described in Gromley et al., J. Cell Biol., 161:535-545 (2003). Briefly, cells were treated with indicated siRNA for at least 50-70 hours, unless otherwise indicated. Cells were synchronized by adding nocodazole to 5 μg/mL for 12 hours prior to cell collection. Cells were collected, fixed in methanol, stained with propidium iodide, and analyzed by flow cytometry (FACSCAN®;Becton Dickinson) using FLOJO® software (Tree Star, Inc.).
FIG. 3A is a graph showing the effects of depleting the indicated centrosomal gene products by siRNA treatment. The left side of the graph depicts the FACS results for treated cells before the addition of nocodazole (-noc). The major fluorescence peak in (-noc) cells is the G1 peak, (i.e., lower DNA fluorescence). The right side of the graph depicts the results for cells after nocodazole treatment (+noc). […] This may be due to inefficient silencing caused by the siRNAs used.
The ability of a number of centrosomal genes to inhibit cell cycling of RPE1 cells was tested by treating cells with siRNAs and performing FACS analysis as described in Example 2.

RPE cells [2] = test: BrDU incorporation after siRNA treatment and nocodazole synchronization; details: relative to control cells (siRNA to lamin), after nocodazole release; FIG. 2A
Experimental: To further study the effects of silencing centrosomal genes, the following cell cycle experiments were performed using RPE cells. In immunofluorescence experiments, cells were delivered by OLIGOFECTAMINE in a media solution containing between 1-100 nanomolar concentration of siRNAs. After 4 hours of incubation with lipofectamine, cells were washed, and cell cycle progression was assayed by (i) treating cells with 5-Bromo-2′-deoxyuridine (BrDU from Sigma, St Louis, Mo.) for 24 hours and staining for BrDU or (ii) staining cells with antibody to Ki-67 (BD Biosciences) according to manufacturer's instructions. BrDU treatment and staining were performed as follows: after 50-70 hours incubation with siRNA, BrDU was added to cells at a final concentration of 5 μg/ml. Cells were fixed in −20° C. methanol and then treated with 2N HCL at 22° C. for 30 minutes, incubated with 1:500 mouse anti-BrdU antibody (Becton Dickinson, Palo Alto, Calif.), and labeled with 1:1,000 goat FITC-mouse antibody (Molecular Probes, Inc.). Cells were also treated with 4′,6-diamidino-2-phenylindole (DAPI) (Molecular Probes) according to the manufacturer's instructions. Cells were prepared, imaged, and the resulting images were deconvolved as described in Example 1.
Upon release from nocodazole treatment, proliferating cells typically resume cell cycle progression. Chromosomal DNA in the cells was imaged using DAPI (faint ghost-like staining) and/or BrDU (brighter staining). Although DAPI can be used to visualize DNA at any stage of the cell cycle, BrDU is only incorporated into newly synthesized DNA only during S-phase. Thus, BrDU incorporation can be used as a marker of cells that progress through at least one S-phase of the cell cycle. Control cells in this experiment were treated with siRNA to lamin.

RPE1 cells = test: FACS of nocodazole shift with kinase inhibitors and siGCP3 (p38 dependence); details: FIG. 7
Experimental: as §1
The following experiment was performed to test if p38, an upstream component of p53 signaling, is required for the centrosomal cell cycle arrest phenotype described herein. The following inhibitors were added to RPE1 cells 1 hour prior to siRNA treatment at the indicated concentrations: SB203580 (p38 inhibitor) 40 μM, SB202190 (p38 inhibitor) 10 μM, and PD98059 (MAPK inhibitor) 50 μM. All inhibitors were obtained from Calbiochem and dissolved in DMSO. siRNA treatment and FACS analysis was performed as described in Example 2.

cdc14A = test: Anti-cdc14A immunofluorescence intensity in siRNA-treated cells; details: 25 cells; FIG. 1C
Experimental: To test the ability of siRNAs to silence centrosomal gene products, cells were treated with siRNAs for 24 hours. Cells were diploid, telomerase-immortalized human retinal pigment epithelial (RPE1) cells (hTERT-RPE1s from Clontech, Palo Alto, Calif.) (see Morales et al., Nat Genet, 21:115-118, 1999). siRNAs directed to δ-tubulin (SEQ ID NO:2), γ-tubulin (SEQ ID NO:4), GCP2 (SEQ ID NO:5), GCP3(SEQ ID NO:6), cNAP1 (SEQ ID NO:8), PCM1 (SEQ ID NO:9), ninein (SEQ ID NO:21), NEK2a (SEQ ID NO:10), centrin2 (SEQ ID NO:12), CDC14A (SEQ ID NO:13), gapcena (SEQ ID NO:15), nemo (SEQ ID NO:16), pericentrin (SEQ ID NO:23), lamin A/C (CUGGACUUCCAGAAGAACA, SEQ ID NO: 24) zyxin (UGUGGCUGUCAACGAACUC, SEQ ID NO:25), and p53 (GGACAAGGGUUGGGCUGGG, SEQ ID NO:26) were made as complementary single stranded 19-mer siRNAs with 3′ dTdT overhangs (Dharmacon Inc., Lafayette, Colo.), deprotected, annealed and delivered into cells using OLIGOFECTAMINE® from Invitrogen (Carlsbad, Calif.). Nucleotides were delivered in media containing up to 100 nanomolar concentrations of siRNAs. […]
FIG. 1C is a histogram quantifying anti-cdc14A immunofluorescence observed in 25 cells treated with (i) siRNA to CDC14 (siCDC14) or (ii) control siLamin.

RPE cells [3] = test: CFDA-SE labeling cell division assay; details: during the 72 hours following siRNA treatment; FIG. 4
Description: RPE cells were transfected with siRNA directed to pericentrin A/B or lamin (control) as described in Example 2. Immediately prior to siRNA transfection cells were labeled with a succinimidyl ester of carboxyfluorescein diacetate (CFDA-SE from Molecular Probes, Eugene, Oreg.) according to manufacturers instructions. CFDA-SE is a fluorescent marker that spontaneously and irreversibly couples to free amines on intracellular and cell-surface proteins. When a cells divides, CFDA-SE labeling is inherited equally by daughter cells, which are therefore half as fluorescent as the parent cell. Cells were prepared for and analyzed by fluorescence microscopy as described in Example 1.

δ-tubulin = test: Immunofluorescence of centrosomal δ-tubulin after siRNA treatment; details: vs lamin control; FIG. 1D
Experimental: To test the ability of siRNAs to silence centrosomal gene products, cells were treated with siRNAs for 24 hours. Cells were diploid, telomerase-immortalized human retinal pigment epithelial (RPE1) cells (hTERT-RPE1s from Clontech, Palo Alto, Calif.) (see Morales et al., Nat Genet, 21:115-118, 1999). siRNAs directed to δ-tubulin (SEQ ID NO:2), γ-tubulin (SEQ ID NO:4), GCP2 (SEQ ID NO:5), GCP3(SEQ ID NO:6), cNAP1 (SEQ ID NO:8), PCM1 (SEQ ID NO:9), ninein (SEQ ID NO:21), NEK2a (SEQ ID NO:10), centrin2 (SEQ ID NO:12), CDC14A (SEQ ID NO:13), gapcena (SEQ ID NO:15), nemo (SEQ ID NO:16), pericentrin (SEQ ID NO:23), lamin A/C (CUGGACUUCCAGAAGAACA, SEQ ID NO: 24) zyxin (UGUGGCUGUCAACGAACUC, SEQ ID NO:25), and p53 (GGACAAGGGUUGGGCUGGG, SEQ ID NO:26) were made as complementary single stranded 19-mer siRNAs with 3′ dTdT overhangs (Dharmacon Inc., Lafayette, Colo.), deprotected, annealed and delivered into cells using OLIGOFECTAMINE® from Invitrogen (Carlsbad, Calif.). Nucleotides were delivered in media containing up to 100 nanomolar concentrations of siRNAs.
Commercial antibodies to the following proteins were used in this study: lamin A/C (Cell Signaling Technology, Beverly, Mass.), δ-, ε-, or γ-tubulin (Sigma-Aldrich, St. Louis, Mo.), zyxin (Santa Cruz Biotechnology, Santa Cruz, Calif.), Nek2A (Zymed, South San Francisco, Calif.), p53 (Calbiochem, San Diego, Calif.). […]

## UAUGAGCAUUGAGGCAGAG (siRNA; RNA, 3' dTdT, backbone not given here) [ninein]
RPE cells [1]
  inhibition of nocodazole-induced shift from G1 peak to G2/M peak: did not cause a pronounced inhibition of the shift

## ACUUCGCCUGGUCCAACUU (siRNA; RNA, 3' dTdT, backbone not given here) [GCP-5, siRNA directed to GCP5]
RPE cells [1]
  inhibition of nocodazole-induced shift from G1 peak to G2/M peak: prevented nocodazole-induced shift

## GAGCAAAAGCAGGAGAUCC (siRNA; RNA, 3' dTdT, backbone not given here) [centrin, siRNA directed to centrin2]
RPE cells [2]
  incorporation of BrDU into chromosomal material: clearly inhibited incorporation of BrDU

## AAGAGAAGCAGAUGCUGCA (siRNA; RNA, 3' dTdT, backbone not given here) [siGCP3, siRNA directed to GCP3]
RPE cells [1]
  inhibition of nocodazole-induced shift from G1 peak to G2/M peak: prevented nocodazole-induced shift
RPE1 cells; siRNA alone
  effect of siRNA on nocodazole-induced shift from G1 to G2/M peak: inhibited this shift

## GCACAGUAAAUACCCACUA (siRNA; RNA, 3' dTdT, backbone not given here) [siCDC14, siRNA directed to CDC14A]
cdc14A
  cells displaying lower anti-cdc14A fluorescence intensity than the lowest control (siLamin treated) cell: 68%

## GUCCCCCAAACAGAGAAAC (siRNA; RNA, 3' dTdT, backbone not given here) [PCM-1, siRNA directed to PCM1]
RPE cells [1]
  inhibition of nocodazole-induced shift from G1 peak to G2/M peak: prevented nocodazole-induced shift

## AGGGAACCAAGGAAAGGCA (siRNA; RNA, 3' dTdT, backbone not given here) [NEK, siRNA directed to NEK2]
RPE cells [2]
  incorporation of BrDU into chromosomal material: less pronounced
RPE cells [1]
  inhibition of nocodazole-induced shift from G1 peak to G2/M peak: did not cause a pronounced inhibition of the shift

## COc1cccc(-c2cc(=O)c3ccccc3o2)c1N [map kinase inhibitor, PD98059]
RPE1 cells; SB203580 40 μM, SB202190 10 μM, PD98059 50 μM
  effect of inhibitor alone on nocodazole-induced shift from G1 to G2/M peak: did not inhibit the nocodazole-induced shift
RPE1 cells; inhibitor added 1 hour prior to siGCP3, SB203580 40 μM, SB202190 10 μM, PD98059 50 μM
  effect of inhibitor on siGCP3-induced cell cycle arrest: did not affect siGCP3's ability to cause cell cycle arrest

## GCAGCUGAGCUGAAGGAGA (siRNA; RNA, 3' dTdT, backbone not given here) [pericentrin A/B, siRNA directed to both pericentrin A and pericentrin B]
RPE cells [3]
  cells that never divided: 40%

## CUGGACUUCCAGAAGAACA (siRNA; RNA, 3' dTdT, backbone not given here) [lamin, control siRNA directed to lamin A/C, reference compound]
RPE cells [3]
  cells that never divided: ~7%

## UCUAUCCGAAAGCCCAGUC (siRNA; RNA, 3' dTdT, backbone not given here) [CNAP, siRNA directed to cNAP1]
RPE cells [2]
  incorporation of BrDU into chromosomal material: clearly inhibited incorporation of BrDU
RPE cells [1]
  inhibition of nocodazole-induced shift from G1 peak to G2/M peak: prevented nocodazole-induced shift

## GGUUCUGGAAACAACUGGG (siRNA; RNA, 3' dTdT, backbone not given here) [siδ-tubulin, siRNA directed to δ-tubulin]
δ-tubulin
  centrosomal δ-tubulin staining: reduced the number and/or fluorescence intensity of centrosomal staining
